One data set concerns the target T1, CYP2C19 (Homo sapiens, UniProt P33261).
T1 construct: tissue Eurofins Panlabs; host or cells: human liver microsomes
Put plainly: CYP2C19 inhibition (HLM, omeprazole substrate). The data set is classed as in vitro ADME. Particulars: 10 μM, 10 min at 37° C. The procedure:
(§1) Inhibition of Microsomal Cytochromes P450. The experiments were performed by Eurofins Panlabs (Redmond, Wash. 98052, USA). CYP1A inhibition (HLM, phenacetin substrate), CYP2B6 inhibition (HLM, bupropion substrate), CYP2C8 inhibition (HLM, paclitaxel substrate), CYP2C9 inhibition (HLM, diclofenac substrate), CYP2C19 inhibition (HLM, omeprazole substrate), CYP2D6 inhibition (HLM, dextromethorphan substrate), and CYP3A inhibition (HLM, midazolam and testosterone substrates) were tested. The test concentration was 10 μM. The incubation time was 10 min at 37° C. The detection method was by HPLC-MS/MS. The experiments were duplicated, and the % inhibition of the control values was averaged (FIG. 8).

The next data set has as its system striatal dopamine levels. Put plainly: MicroPET imaging with 11C-raclopride: cocaine- or nicotine-induced dopamine elevation in freely moving rats. The data set is classed as in vivo, rat. Here is the method:
Drug addiction results from the release of dopamine in the NAcc when an addictive substance is ingested. The effect of 1 on the release of dopamine in freely moving rats was determined using in vivo micropositron emission tomography (microPET) imaging (FIG. 10). (Dewey, S. L.; Morgan, A. E.; Ashby, C. R.; Horan, B.; Kushner, S. A.; Logan, J.; Volkow, N. D.; Fowler, J. S.; Gardner, E. L.; Brodie, J. D. Synapse 1998, 30 (2), 119-129). […] MicroPET was used to measure the dissociation of the tracer [^11C]-raclopride from dopamine receptors caused by either cocaine- or nicotine-induced increases in synaptic dopamine levels (the same images were obtained with cocaine and nicotine). When animals received cocaine (n=8) or nicotine (n=6), striatal dopamine levels were rapidly elevated. (Dewey, S. L.; Chaurasia, C. S.; Chen, C. E.; Volkow, N. D.; Clarkson, F. A.; Porter, S. P.; Straughter-Moore, R. M.; Alexoff, D. L.; Tedeschi, D.; Russo, N. B.; Fowler, J. S.; Brodie, J. D. Synapse 1997, 25 (4), 393-398). […] Therefore, 1 blocks both cocaine- and nicotine-induced elevations in dopamine.
MicroPET imaging. Adult male rats (Sprague-Dawley, 200-250 grams, n =16) were obtained from Taconic Farms. Animals were maintained on a 12/12 light-dark cycle. Scanning was performed using a Siemen's Inveon. All emission scans were corrected for attenuation. Animals received baseline microPET scans using either ^11C-raclopride or ^18FDG as described previously. (Patel, V. D.; Lee, D. E.; Alexoff, D. L.; Dewey, S. L.; Schiffer, W. K. Neuroimage 2008, 41 (3), 1051-1066.) Uptake of both radiotracers occurred while animals were awake and freely moving. Immediately prior to microPET scanning, all animals were anesthetized and maintained under isoflurane.

The next data set deals with T2, CYP2C9 (Homo sapiens, UniProt P11712).
T2 construct: tissue Eurofins Panlabs; host or cells: human liver microsomes
Put plainly: CYP2C9 inhibition (HLM, diclofenac substrate). Type of data set: in vitro ADME. Particulars: 10 μM, 10 min at 37° C. Here is the method: as §1

For data set [1], the target named is alanine aminotransferase (Ala-AT). Nature of the data set: Inhibition of alanine aminotransferase. Particulars: reversible inhibition. Type of data set: biochemical. The text has this: Inhibition of Alanine Aminotransferase by 1. The assay was identical to that with aspartate aminotransferase except L-alanine was used as the substrate and lactate dehydrogenase was the enzyme (FIG. 5).

A further data set deals with CYP3A. Nature of the data set: CYP3A inhibition (HLM, midazolam and testosterone substrates). The data set is classed as in vitro ADME, human. Particulars: 10 μM, 10 min at 37° C. The procedure: as §1
For data set [2], the system named is glucose metabolism in the hippocampus. Nature of the data set: MicroPET imaging with 18FDG: cocaine-induced increases in glucose metabolism in freely moving rats. Type of data set: in vivo, rat. As to conditions: 18FDG microPET, statistical parametric map, p<0.00001, Hydrochloride. The text has this:
In addition to labeled raclopride studies, [^18F]-2′-fluoro-2′-deoxy-D-glucose (^18FDG) and microPET were also used to examine the regional effects of 1 on cocaine-induced increases in glucose metabolism. ^18FDG is an analogue of glucose that gets taken up into neurons (or any cells in the human body) just like glucose. However, after ^18FDG is phosphorylated, the corresponding 6′-phosphate cannot be further metabolized in the glycolytic pathway and remains in cells. Consequently, human PET studies have used ^18 FDG for decades to map the brain. […] When a human or a rat receives a psychostimulant like cocaine, dopamine floods the synapse, causing post-synaptic neurons to fire frantically. Because this neuronal firing requires energy in the form of glucose, the result is that brain glucose metabolism increases in specific brain regions. The effect of 1 on cocaine-induced increases in glucose metabolism in freely moving rats was determined using statistical parametric mapping, in which all of the images from the cocaine-only animals were added together and then compared to the images obtained from the same animals that received 1 and cocaine. A statistical threshold (p<0.00001) was set, and a statistical parametric map, an image showing all the pixels that were statistically different between the two conditions, was generated and then overlaid on an MRI of the rat brain (FIG. 11). […]

A further data set concerns the target T3, CYP2B6 (Homo sapiens, UniProt P20813).
T3 construct: tissue Eurofins Panlabs; host or cells: human liver microsomes
T3 sequence (P20813 1-491): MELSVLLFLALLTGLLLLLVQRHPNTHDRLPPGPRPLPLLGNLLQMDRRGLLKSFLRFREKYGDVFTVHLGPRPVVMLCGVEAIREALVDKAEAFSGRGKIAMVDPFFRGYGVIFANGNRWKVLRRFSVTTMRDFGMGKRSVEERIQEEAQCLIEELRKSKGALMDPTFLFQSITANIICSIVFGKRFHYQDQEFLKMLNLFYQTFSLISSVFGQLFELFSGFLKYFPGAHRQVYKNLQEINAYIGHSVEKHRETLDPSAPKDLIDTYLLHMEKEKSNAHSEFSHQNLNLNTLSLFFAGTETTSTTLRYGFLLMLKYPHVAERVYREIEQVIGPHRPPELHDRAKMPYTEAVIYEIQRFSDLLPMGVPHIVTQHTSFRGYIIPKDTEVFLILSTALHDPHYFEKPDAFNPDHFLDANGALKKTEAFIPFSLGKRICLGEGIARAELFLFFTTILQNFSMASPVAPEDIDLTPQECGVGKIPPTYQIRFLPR
Put plainly: CYP2B6 inhibition (HLM, bupropion substrate). Type of data set: in vitro ADME. Particulars: 10 μM, 10 min at 37° C. Here is the method: as §1

Data set [3] has as its target aspartate aminotransferase (Asp-AT). Nature of the data set: Inhibition of aspartate aminotransferase. Type of data set: biochemical. Particulars: reversible inhibition. The procedure:
Inhibition of Aspartate Aminotransferase by 1. Microtiter plate wells were loaded with 90 μL of an assay mixture containing 100 mM potassium phosphate at pH 7.4, 5.55 mM α-ketoglutarate, 1.11 mM NADH, 5.55 mM L-aspartate, 11.1 units of malic dehydrogenase, and various concentrations of 1. After incubation of the mixture at room temperature for a few min, 10 μL of Asp-AT (3.0 units/mL in 100 mM potassium phosphate at pH 7.4) was added. The plate was shaken at room temperature for 1 min, and the absorbance was measured at 340 nm every 6 s for 90 min. All assays were performed in duplicate (FIG. 4).

“Also recorded” adds a separate entry of the source. Counter-ions that a name gives are not always drawn.

T2 sequence (P11712 whole entry): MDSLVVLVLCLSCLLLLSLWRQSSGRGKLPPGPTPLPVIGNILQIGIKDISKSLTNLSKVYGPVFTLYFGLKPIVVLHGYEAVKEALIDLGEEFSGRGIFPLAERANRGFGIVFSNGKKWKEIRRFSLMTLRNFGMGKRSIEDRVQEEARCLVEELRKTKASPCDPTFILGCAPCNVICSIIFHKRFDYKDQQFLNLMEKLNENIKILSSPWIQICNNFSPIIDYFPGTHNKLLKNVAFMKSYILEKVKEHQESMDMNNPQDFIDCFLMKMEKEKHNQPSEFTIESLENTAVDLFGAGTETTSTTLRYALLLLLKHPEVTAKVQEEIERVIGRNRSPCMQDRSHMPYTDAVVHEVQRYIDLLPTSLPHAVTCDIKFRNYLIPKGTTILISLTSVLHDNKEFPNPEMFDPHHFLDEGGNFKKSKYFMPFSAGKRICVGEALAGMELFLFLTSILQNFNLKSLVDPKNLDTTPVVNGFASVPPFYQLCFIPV
T1 sequence (P33261 whole entry): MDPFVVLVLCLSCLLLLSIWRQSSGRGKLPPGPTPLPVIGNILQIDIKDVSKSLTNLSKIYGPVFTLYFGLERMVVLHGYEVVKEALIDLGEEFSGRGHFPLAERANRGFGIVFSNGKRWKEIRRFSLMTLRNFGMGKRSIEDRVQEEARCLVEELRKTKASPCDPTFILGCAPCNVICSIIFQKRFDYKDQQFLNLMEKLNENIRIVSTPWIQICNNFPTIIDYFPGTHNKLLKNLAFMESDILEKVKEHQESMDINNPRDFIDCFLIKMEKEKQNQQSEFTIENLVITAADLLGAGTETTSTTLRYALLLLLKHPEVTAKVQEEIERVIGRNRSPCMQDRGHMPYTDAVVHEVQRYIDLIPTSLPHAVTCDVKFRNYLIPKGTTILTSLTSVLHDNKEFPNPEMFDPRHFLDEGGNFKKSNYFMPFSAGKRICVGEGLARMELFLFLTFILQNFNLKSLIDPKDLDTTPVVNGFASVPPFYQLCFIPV

As to `N[C@H]1C=C(C(=O)O)CC1=C(F)F` [Compound 1, (S)-3-Amino-4-(difluoromethylenyl)cyclopent-1-ene-1-carboxylic acid Hydrochloride], on CYP2C19, the “inhibition or induction of CYP 2C19” value is “does not inhibit or induce”. Also, the “suppressing the release of dopamine in the NAcc following a cocaine or nicotine challenge, compared with CPP-115” value in the data set with striatal dopamine levels is on record as “superior to CPP-115”. The “cocaine-induced elevations in dopamine” value with striatal dopamine levels (1 given prior to cocaine, 11C-raclopride microPET) was “blocks”. In the data set on striatal dopamine levels (1 given prior to nicotine, 11C-raclopride microPET), the “nicotine-induced elevations in dopamine” value is listed as “blocks”. On CYP2C9, the “inhibition or induction of CYP 2C9” value is given as “does not inhibit or induce”. The IC50 in data set [1] and in data set [3] was greater than 4 mM in each case. The “inhibition or induction of CYP 3A” value in the data set with CYP3A is “does not inhibit or induce”. Besides, the “cocaine-induced activation (metabolic demand) in the hippocampus” value in data set [2] was “attenuated; also recorded: all gone”. For the same compound, at CYP2B6, the “inhibition or induction of CYP 2B6” value is on record as “does not inhibit or induce”.

Source of the values: patent publication US9993449B2, “(S)-3-amino-4-(difluoromethylenyl)cyclopent-1-ene-1-carboxylic acid, and related compounds as GABA aminotransferase inactivators for the treatment of epilepsy, addiction and hepatocellular carcinoma” (NORTHWESTERN UNIVERSITY, priority 2015, dated 2018).
